The results in this text go back to ChEMBL document CHEMBL1201862, “PubChem BioAssay data set” (2004).

Structures are written as SMILES. Calls of active or inactive are those of the source.

Experiment [1] addresses T1, Rac GTPase-activating protein 1 (Homo sapiens, UniProt Q9H0H5).
T1 sequence (Q9H0H5 whole entry): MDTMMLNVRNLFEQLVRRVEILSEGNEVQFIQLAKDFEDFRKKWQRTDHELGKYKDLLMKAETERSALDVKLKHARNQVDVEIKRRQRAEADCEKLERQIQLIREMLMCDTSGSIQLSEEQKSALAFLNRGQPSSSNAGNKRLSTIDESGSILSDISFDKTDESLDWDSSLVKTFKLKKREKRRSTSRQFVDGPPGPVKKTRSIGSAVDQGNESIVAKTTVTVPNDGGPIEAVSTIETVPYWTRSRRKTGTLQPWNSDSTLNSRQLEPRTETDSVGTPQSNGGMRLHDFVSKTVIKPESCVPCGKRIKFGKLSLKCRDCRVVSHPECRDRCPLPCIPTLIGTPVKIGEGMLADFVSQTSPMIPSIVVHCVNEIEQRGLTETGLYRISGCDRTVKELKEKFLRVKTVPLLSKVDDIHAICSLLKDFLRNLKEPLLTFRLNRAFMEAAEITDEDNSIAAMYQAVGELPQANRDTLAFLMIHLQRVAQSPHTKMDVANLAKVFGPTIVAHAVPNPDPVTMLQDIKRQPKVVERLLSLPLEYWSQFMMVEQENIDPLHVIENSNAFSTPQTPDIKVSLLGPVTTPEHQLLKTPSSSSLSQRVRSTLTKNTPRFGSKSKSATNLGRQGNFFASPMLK
The experiment can be described thus: MgcRacGAP GTPase-activating activity inhibitors, confirmation, biochemical, ADP Hunter fluorescence, primary and confirmatory (AID 624330). The class given is functional.

Experiment [2] has as its target T2, DNA repair protein RAD52 homolog (Homo sapiens, UniProt P43351).
T2 sequence (P43351 whole entry): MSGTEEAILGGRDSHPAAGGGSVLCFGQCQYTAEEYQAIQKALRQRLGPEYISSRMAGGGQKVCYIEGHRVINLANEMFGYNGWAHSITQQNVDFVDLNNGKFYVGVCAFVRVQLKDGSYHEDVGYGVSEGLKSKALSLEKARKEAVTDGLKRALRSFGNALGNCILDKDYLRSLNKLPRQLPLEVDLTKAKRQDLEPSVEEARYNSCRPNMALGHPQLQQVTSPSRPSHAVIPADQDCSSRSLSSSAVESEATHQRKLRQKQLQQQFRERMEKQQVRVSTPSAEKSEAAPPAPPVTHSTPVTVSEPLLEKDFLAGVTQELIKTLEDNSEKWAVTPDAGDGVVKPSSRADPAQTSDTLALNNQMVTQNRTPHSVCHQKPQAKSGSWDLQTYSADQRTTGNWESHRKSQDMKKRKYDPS
The class given is functional, biochemical.

The nature of experiment [3]: microbe, parasite or virus in culture. The class given is functional. The note with it: Mycobacterium tuberculosis.
Experiment [4] can be described thus: A549 cell cytotoxicity, dose response, cytotoxicity control, plate reader, cherry-pick, antagonist series (AID 743412). The class given is functional, cell-based.
The subject of experiment [5] is Streptococcus sp. 'group A'. The experiment can be described thus: growth inhibition of control SK(-) GAS strain, dose response, counter-screen for streptokinase expression inhibitor project, luminescence, kanamycin, BacTiterGlo, confirmation (AID 1900). The class given is functional, organism-based.
The nature of experiment [6]: cells. The class given is functional, cell-based.
Experiment [7] addresses T3, Heat shock factor protein 1 (Mus musculus, UniProt P38532).
T3 sequence (P38532 whole entry): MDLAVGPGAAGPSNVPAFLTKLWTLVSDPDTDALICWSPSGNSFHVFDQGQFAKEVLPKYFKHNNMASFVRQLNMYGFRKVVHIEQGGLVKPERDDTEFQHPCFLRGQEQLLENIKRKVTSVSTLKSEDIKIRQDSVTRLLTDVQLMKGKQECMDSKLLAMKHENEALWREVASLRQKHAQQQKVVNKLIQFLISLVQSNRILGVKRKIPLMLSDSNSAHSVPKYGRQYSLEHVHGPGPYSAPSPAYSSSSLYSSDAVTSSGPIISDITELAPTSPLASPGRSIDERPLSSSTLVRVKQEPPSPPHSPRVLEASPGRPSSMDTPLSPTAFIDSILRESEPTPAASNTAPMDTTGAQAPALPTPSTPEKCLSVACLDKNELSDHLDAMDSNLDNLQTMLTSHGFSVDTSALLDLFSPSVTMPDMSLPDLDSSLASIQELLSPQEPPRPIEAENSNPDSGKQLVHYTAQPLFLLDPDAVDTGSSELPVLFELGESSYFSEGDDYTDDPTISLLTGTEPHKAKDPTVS
The experiment can be described thus: inhibition of MG132-induced HSE-luciferase signal, confirmation, cell-based, NIH3T3, luminescence, dose retest (AID 2382).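 Also: NIH3T3 fibroblasts with HSF1-driven luciferase reporter stressed by proteasome inhibitor MG132; luminescence from HSF1-driven luciferase expression after 8 hours of MG132 stress.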 The class given is functional.

Experiment [8] is described as follows: inhibitors of intracellular T. cruzi replication, confirmation, NIH3T3 host cells, beta-gal luminescence (AID 2044).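 Also: intracellular parasites grown in NIH/3T3 mouse fibroblasts as host cells; luminescent beta-galactosidase reporter signal from transgenic T. cruzi replicating inside host cells; inhibitors lower the luminescence signal.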 The class given is functional, cell-based.
Experiment [9] is described as follows: cells. The class given is functional, cell-based. This is another data set of the same source.
The nature of experiment [10]: cytotoxicity toward NIH3T3 fibroblasts, dose response, counter-screen, cell-based, ATP luminescence, mouse fibroblasts (AID 2010).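 Also: cells exposed to compound for about 90 hours before reading.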 The class given is functional.
For experiment [11], the system named is Streptococcus. Kind of experiment: Group A Streptococcus viability loss, dose response, counter-screen for streptokinase expression inhibitor project, luminescence, BacTiterGlo (AID 1915).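 Also: potency for reduction of bacterial viability or growth.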 The class given is functional, organism-based.
In experiment [12] the target is Heat shock protein HSP 90-alpha (Homo sapiens, UniProt P07900). The class given is functional, organism-based.
Experiment [13] is described as follows: Shn3 3'UTR reporter inhibitors, dose response, cell-based, Clone20 osteoblasts, firefly luciferase, cherry-picked (AID 624132).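 Also: firefly luciferase luminescence from reporter carrying the Shn3 3'UTR in osteoblasts.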 The class given is functional.
Experiment [14] can be described thus: HepG2 cell cytotoxicity, dose response, cytotoxicity control for Shn3 inhibitor project, CellTiter-Glo, cherry-picked (AID 624134). The class given is functional, cell-based.
Experiment [15] can be described thus: control 3'UTR Renilla luciferase suppression, dose response, counter-screen for Shn3 inhibitor project, cell-based, Clone20-Shn3RL, cherry-picked (AID 624133). The class given is functional.
Experiment [16] can be described thus: miR-122 activators in hepatoma reporter cells, dose response, cell-based, Huh7 psiCHECK-miR122, Renilla luciferase, cherry-picked (AID 651956).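 Also: huh7 hepatoma cells stably carrying a psiCHECK-2 miR-122 sensor plasmid; renilla luciferase signal reporting endogenous miR-122 activity after 48 h compound exposure.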 The class given is functional.
The nature of experiment [17]: HEK293T cytotoxicity, dose response, cytotoxicity control for miR-122 modulator project, cell-based, activator set, cherry-pick (AID 720690).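 Also: HEK293T human cells scored for general mammalian cytotoxicity.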 The class given is functional.
In experiment [18] the target is Protein Wnt-3a (Mus musculus, UniProt P27467). The experiment can be described thus: Wnt3a-driven reporter signaling inhibition, dose response, selectivity assay for Gli-SUFU antagonist project, Wnt-LIGHT cells, luminescence (AID 651570).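 Also: Wnt-LIGHT reporter cells stimulated with conditioned medium from Wnt3a-producing cells.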 The class given is functional. The note with it: read-out: IC50_Mean.
In experiment [19] the target is Glucose-6-phosphate 1-dehydrogenase (Homo sapiens, UniProt P11413). The experiment can be described thus: human G6PD enzyme inhibitors, dose response, selectivity assay for P. falciparum G6PD inhibitor project, biochemical, fluorescence (AID 504792). The class given is functional.
Experiment [20] is described as follows: CEM21 lymphoblast cell cytotoxicity, dose response, cytotoxicity control for viral fusion inhibitor project, CellTiter-Glo luminescence, cherry-picked (AID 652042).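 Also: potency for signal decrease meaning cytotoxicity.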 The class given is functional, cell-based.
Experiment [21] is described as follows: inhibitors of HIV Env-driven cell fusion, dose response, cherry-pick (AID 652057). The class given is functional, cell-based.
A short description of experiment [22]: ZM109 Env clade C HIV-1 fusion inhibitors, dose response, HeLa effector, CEM target cells, luciferase, cherry-pick (AID 652058). The class given is functional, cell-based.
Experiment [23] can be described thus: off-target signal loss in HeLa-CEM21 co-culture – HeLa F-luc CTL cells, cherry-picked, counter-screen for HIV-1 Env fusion inhibitor project, dose response (AID 652040).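 Also: potency for signal decrease marking cytotoxic or nonspecific inhibition.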 The class given is functional, cell-based.
Experiment [24] is described as follows: inhibitors of clade B AD8 Env fusion, dose response, cell-based, cherry-pick (AID 652062).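 Also: luciferase signal from cell-cell fusion driven by HIV-1 clade B AD8 Env; potency is for inhibitors of fusion seen as a drop in luminescence.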 The class given is functional.

Chain of Protein Wnt-3a (P27467 whole entry): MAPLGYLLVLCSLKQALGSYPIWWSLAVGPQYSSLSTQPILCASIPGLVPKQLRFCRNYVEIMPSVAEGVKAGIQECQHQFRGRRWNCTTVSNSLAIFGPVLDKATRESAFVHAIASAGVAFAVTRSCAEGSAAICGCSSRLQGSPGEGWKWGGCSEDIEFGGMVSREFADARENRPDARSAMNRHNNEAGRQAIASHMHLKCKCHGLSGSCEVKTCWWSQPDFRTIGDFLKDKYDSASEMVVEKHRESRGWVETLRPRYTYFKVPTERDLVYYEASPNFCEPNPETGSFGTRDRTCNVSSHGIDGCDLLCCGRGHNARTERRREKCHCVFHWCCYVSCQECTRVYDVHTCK
Chain of Glucose-6-phosphate 1-dehydrogenase (P11413 whole entry, the tested form may be a part): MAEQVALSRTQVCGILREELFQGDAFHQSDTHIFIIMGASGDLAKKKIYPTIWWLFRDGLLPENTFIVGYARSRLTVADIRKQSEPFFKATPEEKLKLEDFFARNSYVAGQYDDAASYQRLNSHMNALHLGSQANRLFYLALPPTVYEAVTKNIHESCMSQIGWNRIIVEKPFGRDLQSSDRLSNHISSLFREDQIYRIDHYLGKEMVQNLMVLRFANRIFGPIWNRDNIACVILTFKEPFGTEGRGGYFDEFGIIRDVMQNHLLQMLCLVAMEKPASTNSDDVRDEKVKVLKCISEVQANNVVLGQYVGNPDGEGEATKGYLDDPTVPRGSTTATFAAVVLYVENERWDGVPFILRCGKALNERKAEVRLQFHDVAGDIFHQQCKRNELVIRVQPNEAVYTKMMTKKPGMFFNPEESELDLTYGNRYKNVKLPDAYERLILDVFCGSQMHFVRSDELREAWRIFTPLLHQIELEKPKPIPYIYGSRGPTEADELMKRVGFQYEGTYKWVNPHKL

As for `O=C(CN1CCCCC1)Nc1ccc(N2CCCCCC2)cc1`, the IC50 in experiment [1] was 126 µM (active). The AC50 in experiment [2] was 22.8 µM (active).
With `Cc1ccc(-c2csc(NC(=O)C[n+]3cc(-c4ccccc4)n4c3CCC4)n2)cc1`, the AC50 in experiment [2] is 21.1 µM (active).
For the molecule `Cc1ccc(-n2cc(CN(C)Cc3nccn3C)c(-c3cccc(C)c3)n2)cc1`, in [3], the CC50 is > 40 µM (active). The AC50 in [4] was > 52 µM (inactive).
Regarding `CC(=O)NC(c1ccc(C)cc1)c1cc(Cl)c2cccnc2c1O` (centres undefined), the 50% effective concentration (EC50) in experiment [5] was 1.38 µM (active); in experiment [6], 14.7 µM (active); in experiment [7], 0.911 µM (active); in [8], 0.655 µM (active); in experiment [9], > 350 µM (not active); in experiment [10], 0.763 µM (active). Further, the EC50 in experiment [11] is 6.97 µM (active). Further, the AC50 in experiment [12] was 3.52 µM (active); in [13] it was 2.12 µM (active); in experiment [14], 4.67 µM (active); in [15], 3.29 µM (active); in experiment [16], 37.4 µM (active); in experiment [17], 2.8 µM (active).
For the molecule `Cc1cc(NC(=O)CSc2nc3c4ccccc4nc-3c(O)n2-c2ccccc2F)no1`, the IC50 in [18] is 6.29 µM (active).
As to `c1ccc(C[n+]2cccc(-c3ccccc3)c2)cc1`, the IC50 in [18] was 44.8 µM (inactive).
Consider `Cc1ccc(NC(=O)/C=C/c2ccco2)cc1S(=O)(=O)N1CCCCCC1`, for which, in experiment [18], the IC50 was 17.7 µM (active).
For `COc1cc(-c2cc(OC)c(O)c(OC)c2)cc(OC)c1O`, the IC50 is > 80 µM (inactive) in experiment [19] and 88.4 µM (active) in [1]. For the same molecule, the half-maximal activity concentration (AC50) in experiment [20] is 27.4 µM (active).
In the case of `O=C1[C@H](Cc2ccccc2)NCCCC[C@H](c2ccco2)N1Cc1ccccc1`, the AC50 in [21] is 4.38 µM (active); in experiment [20], 39.9 µM (active); in experiment [22], 10.4 µM (active); in experiment [23] it was 7.61 µM (active); in [24], 35.3 µM (active).
